From ChEMBL document CHEMBL1201862, “PubChem BioAssay data set” (2004) come the findings set out here.

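Grown in 96-well plates, cells were treated for 48 hours with each compound at five concentrations. Insufficient inhibition: endpoint recorded as highest concentration tested. GI50 marks 50% less growth.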 Active and inactive are the calls of the source. Rule as the data show it: active = GI50 up to about 1.1 µM and inactive = higher.

Holding throughout (assay): growth of human tumour cells (NCI), 48 h
Assay [1] concerns A498.
Assay [2] concerns A549.
Assay [3] concerns ACHN.
The subject of assay [4] is HCT-116.
Assay [5] relates to HCT-15.
Assay [6] concerns HL-60.
Assay [7] concerns HOP-92.
The test system of assay [8] is HT-29.
For assay [9], the system named is K562.
In assay [10] the test system is KM12.
Assay [11] relates to MCF7.
The subject of assay [12] is NCI-H460.
Assay [13] deals with SF-268.
In assay [14] the test system is SK-MEL-28.
In assay [15] the test system is SK-MEL-2.
Assay [16] relates to SK-MEL-5.
Assay [17] has as its system SN12C.
The subject of assay [18] is SNB-19.
In assay [19] the test system is SNB-75.
Assay [20] has as its system SW-620.

For `O=C1[C@@H]2[C@@H](CN3CN(c4ccccc4)N=C(c4ccccc4)[C@@]23c2ccccc2)C(=O)N1c1ccccc1`, the GI50 in assay [1] is 18.4 µM (inactive); in assay [2], 6.11 µM (inactive); in [3], 1.83 µM (inactive); in [4] it was 5.07 µM (inactive); in [5], 2.3 µM; in assay [6] it was 2.25 µM (inactive). Also, the GI50 in [7] was 1.79 µM (inactive); in [8], 2.36 µM (inactive); in [9], 2.69 µM (inactive); in assay [10], 14.3 µM (inactive); in assay [11], 1.94 µM (inactive); in assay [12], 19.8 µM (inactive). For the same molecule, the GI50 in assay [13] was 18.8 µM (inactive); in [14], 11.3 µM (inactive); in assay [15], 14.9 µM (inactive); in [16] it was 16.9 µM (inactive); in assay [17], 6.58 µM (inactive); in assay [18], 16.7 µM (inactive). The GI50 in assay [19] was 16 µM (inactive); in assay [20] it was 2 µM (inactive).
`Cc1cccc(NC(=S)N/N=C2\C(=O)Nc3ccccc32)c1`: the GI50 is 29.7 µM (inactive) in assay [1]; 59.4 µM (inactive) in assay [2]; 43.1 µM (inactive) in assay [3]; 44.9 µM (inactive) in assay [4]; 73.8 µM in assay [5]; 67.8 µM (inactive) in [6]. The GI50 was > 100 µM (inactive) in assay [7]; > 100 µM (inactive) in [8]; 65.8 µM (inactive) in assay [9]; 39 µM (inactive) in [10]; > 100 µM (inactive) in assay [11]; 48.3 µM (inactive) in assay [12]. The GI50 was 4.98 µM (inactive) in assay [13]; 16.1 µM (inactive) in assay [14]; 70.6 µM (inactive) in assay [15]; 23.3 µM (inactive) in assay [16]; 91.4 µM (inactive) in [17]; > 100 µM (inactive) in assay [18]. The GI50 in assay [19] is 63.1 µM (inactive); in assay [20], > 100 µM (inactive).
`COc1ccc2cc(CN3CCC(C4CCN(Cc5ccc6cc(OC)ccc6c5)CC4)CC3)ccc2c1`: the GI50 in assay [1] is 8.43 µM (inactive); in [2], 24.9 µM (inactive); in assay [3], 7.35 µM (inactive); in [4] it was 2.39 µM (inactive); in assay [5], 1.45 µM; in [6], 2.33 µM (inactive). Moreover, the GI50 in [7] is 2.37 µM (inactive); in assay [8], 2.2 µM (inactive); in assay [9], 0.455 µM (active); in [10], 2.43 µM (inactive); in [11], 4.06 µM (inactive); in assay [12], 2.17 µM (inactive). Moreover, the GI50 in [13] was 3.16 µM (inactive); in assay [14], 2.21 µM (inactive); in [15], 4.44 µM (inactive); in assay [16] it was 1.66 µM (inactive); in assay [17] it was 8.95 µM (inactive); in assay [18], 3.2 µM (inactive). Moreover, the GI50 was 4.45 µM (inactive) in [19] and 2.64 µM (inactive) in assay [20].
Consider `Oc1ccc(-c2nc3ccc4ccccc4c3c3c2CCCC3)c(O)c1`, for which the GI50 in [1] was 51.1 µM (inactive); in assay [2] it was 23.2 µM (inactive); in [3] it was 28.8 µM (inactive); in [4] it was 10.7 µM (inactive); in assay [5] it was 26.5 µM; in [6] it was 2.55 µM (inactive). For the same molecule, the GI50 in assay [7] was 24.7 µM (inactive); in [8], 11.9 µM (inactive); in [9] it was > 100 µM (inactive); in assay [10], 13.8 µM (inactive); in assay [11] it was 27.7 µM (inactive); in [12], 19.6 µM (inactive). Besides, the GI50 in [13] was 22.2 µM (inactive); in assay [14], 19.2 µM (inactive); in [15], 9.08 µM (inactive); in assay [16] it was 9.68 µM (inactive); in assay [17], 17.7 µM (inactive); in [18], 16.3 µM (inactive). The GI50 in assay [19] is 28.7 µM (inactive); in assay [20], 20.4 µM (inactive).
`O=C(O)CNC(=O)c1cccc2c(=O)c3ccccc3[nH]c12`: the GI50 was > 100 µM (inactive) in [1]; > 100 µM (inactive) in assay [2]; > 100 µM (inactive) in assay [3]; > 100 µM (inactive) in assay [4]; over 100 µM in [5]; > 100 µM (inactive) in assay [6]. Besides, the GI50 in assay [7] was > 100 µM (inactive); in [8] it was > 100 µM (inactive); in [9] it was > 100 µM (inactive); in [10] it was > 20.9 µM (inactive); in [11] it was > 100 µM (inactive); in [12] it was > 100 µM (inactive). Further, the GI50 in [13] was > 100 µM (inactive); in assay [14] it was > 100 µM (inactive); in assay [15], > 100 µM (inactive); in assay [16], 99.8 µM (inactive); in assay [17], > 100 µM (inactive); in [18], > 100 µM (inactive). For the same molecule, the GI50 in assay [19] was 84.7 µM (inactive); in assay [20], > 100 µM (inactive).
Take `CCC(Sc1cc(Cl)c(C)cc1S(=O)(=O)Nc1nc(N)nc(N(C)C)n1)C(=O)O` (stereo not given): the GI50 in [1] was > 10 µM (inactive); in assay [2] it was > 10 µM (inactive); in assay [3], > 10 µM (inactive); in assay [4] it was > 10 µM (inactive); in assay [5], over 10 µM; in assay [6], > 10 µM (inactive). The GI50 in assay [7], in assay [8], in [9], in assay [10], in [11] and in assay [12] was > 10 µM (inactive) throughout. Besides, the GI50 in assay [13], in [14], in [15], in assay [16], in assay [17] and in assay [18] was > 10 µM (inactive) each time. For the same molecule, the GI50 in [19] and in [20] was > 10 µM (inactive) in each case.
`CCOC(=O)C(SCCO)C(C(=O)OCC)n1ccc(=O)[nH]c1=O` (stereo not given): the GI50 was 75 µM (inactive) in assay [1]; > 100 µM (inactive) in assay [2]; 21.2 µM (inactive) in assay [3]; 16.3 µM (inactive) in assay [4]; 17.5 µM in assay [5]; 3.16 µM (inactive) in assay [6]. For the same molecule, the GI50 in [7] was 13.8 µM (inactive); in assay [8] it was 23.5 µM (inactive); in assay [9], 5.55 µM (inactive); in assay [10] it was 37 µM (inactive); in assay [11] it was 23.1 µM (inactive); in assay [12], 57.1 µM (inactive). Moreover, the GI50 in assay [13] is 35.4 µM (inactive); in assay [14] it was 28.8 µM (inactive); in assay [15], 33.7 µM (inactive); in [16], 63.5 µM (inactive); in [17] it was 22.1 µM (inactive); in assay [18] it was > 100 µM (inactive). The GI50 in assay [19] is 25.4 µM (inactive); in assay [20], 12.9 µM (inactive).
